Results on 21 compounds are retold here after patent publication US12421225B2, “Heteroaromatic amide derivative and medicament containing the same” (KAKEN PHARMACEUTICAL CO., LTD., priority 2018, dated 2025).

The target in one data set is human Nav1.7 (Homo sapiens (Human), UniProt Q15858). Description: Human Nav1.7 inhibitory activity evaluation (automated patch clamp QPatch16X, HEK293A cells stably expressing human Nav1.7 and human Navβ1). In kind it is cell-based. A digest of the protocol:
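IC50 calculated from the concentration-response of inward current evoked by the second −10 mV, 50 ms depolarisation, which follows a 15 s conditioning step at roughly 30-40% inactivation and a 100 ms −120 mV interval. Cells: HEK293A expressing human Nav1.7/Navβ1, automated patch clamp, room temperature, 0.1% DMSO final.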

A further data set has as its target human Nav1.5 (Homo sapiens (Human), UniProt Q14524). Description: Human Nav1.5 inhibitory activity evaluation (automated patch clamp QPatch16X, HEK293 cells stably expressing human Nav1.5). In kind it is cell-based. An outline of the steps: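 IC50 derived from concentration-response of inward current at the 20th of 20 action-potential-mimicking pulses (holding −80 mV, leak corrected with −100 mV step). HEK293 cells stably expressing human Nav1.5, room temperature, extracellular pH 7.4, intracellular CsF-based pH 7.3, 0.1% DMSO.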
(In general: In patch-clamp work, channel activity is measured electrically.)

The mark [1] stands for this setting: human Nav1.7, automated patch clamp.
Where [2] appears, read: human Nav1.5, automated patch clamp.
[3] abbreviates: HEK293A cells stably expressing human Nav1.7 and human Navβ1, automated patch clamp QPatch16X.
Setting [4] is: HEK293 cells stably expressing human Nav1.5, automated patch clamp QPatch16X.

Some results are limits rather than exact numbers.

Chain of human Nav1.5 (Q14524 whole entry): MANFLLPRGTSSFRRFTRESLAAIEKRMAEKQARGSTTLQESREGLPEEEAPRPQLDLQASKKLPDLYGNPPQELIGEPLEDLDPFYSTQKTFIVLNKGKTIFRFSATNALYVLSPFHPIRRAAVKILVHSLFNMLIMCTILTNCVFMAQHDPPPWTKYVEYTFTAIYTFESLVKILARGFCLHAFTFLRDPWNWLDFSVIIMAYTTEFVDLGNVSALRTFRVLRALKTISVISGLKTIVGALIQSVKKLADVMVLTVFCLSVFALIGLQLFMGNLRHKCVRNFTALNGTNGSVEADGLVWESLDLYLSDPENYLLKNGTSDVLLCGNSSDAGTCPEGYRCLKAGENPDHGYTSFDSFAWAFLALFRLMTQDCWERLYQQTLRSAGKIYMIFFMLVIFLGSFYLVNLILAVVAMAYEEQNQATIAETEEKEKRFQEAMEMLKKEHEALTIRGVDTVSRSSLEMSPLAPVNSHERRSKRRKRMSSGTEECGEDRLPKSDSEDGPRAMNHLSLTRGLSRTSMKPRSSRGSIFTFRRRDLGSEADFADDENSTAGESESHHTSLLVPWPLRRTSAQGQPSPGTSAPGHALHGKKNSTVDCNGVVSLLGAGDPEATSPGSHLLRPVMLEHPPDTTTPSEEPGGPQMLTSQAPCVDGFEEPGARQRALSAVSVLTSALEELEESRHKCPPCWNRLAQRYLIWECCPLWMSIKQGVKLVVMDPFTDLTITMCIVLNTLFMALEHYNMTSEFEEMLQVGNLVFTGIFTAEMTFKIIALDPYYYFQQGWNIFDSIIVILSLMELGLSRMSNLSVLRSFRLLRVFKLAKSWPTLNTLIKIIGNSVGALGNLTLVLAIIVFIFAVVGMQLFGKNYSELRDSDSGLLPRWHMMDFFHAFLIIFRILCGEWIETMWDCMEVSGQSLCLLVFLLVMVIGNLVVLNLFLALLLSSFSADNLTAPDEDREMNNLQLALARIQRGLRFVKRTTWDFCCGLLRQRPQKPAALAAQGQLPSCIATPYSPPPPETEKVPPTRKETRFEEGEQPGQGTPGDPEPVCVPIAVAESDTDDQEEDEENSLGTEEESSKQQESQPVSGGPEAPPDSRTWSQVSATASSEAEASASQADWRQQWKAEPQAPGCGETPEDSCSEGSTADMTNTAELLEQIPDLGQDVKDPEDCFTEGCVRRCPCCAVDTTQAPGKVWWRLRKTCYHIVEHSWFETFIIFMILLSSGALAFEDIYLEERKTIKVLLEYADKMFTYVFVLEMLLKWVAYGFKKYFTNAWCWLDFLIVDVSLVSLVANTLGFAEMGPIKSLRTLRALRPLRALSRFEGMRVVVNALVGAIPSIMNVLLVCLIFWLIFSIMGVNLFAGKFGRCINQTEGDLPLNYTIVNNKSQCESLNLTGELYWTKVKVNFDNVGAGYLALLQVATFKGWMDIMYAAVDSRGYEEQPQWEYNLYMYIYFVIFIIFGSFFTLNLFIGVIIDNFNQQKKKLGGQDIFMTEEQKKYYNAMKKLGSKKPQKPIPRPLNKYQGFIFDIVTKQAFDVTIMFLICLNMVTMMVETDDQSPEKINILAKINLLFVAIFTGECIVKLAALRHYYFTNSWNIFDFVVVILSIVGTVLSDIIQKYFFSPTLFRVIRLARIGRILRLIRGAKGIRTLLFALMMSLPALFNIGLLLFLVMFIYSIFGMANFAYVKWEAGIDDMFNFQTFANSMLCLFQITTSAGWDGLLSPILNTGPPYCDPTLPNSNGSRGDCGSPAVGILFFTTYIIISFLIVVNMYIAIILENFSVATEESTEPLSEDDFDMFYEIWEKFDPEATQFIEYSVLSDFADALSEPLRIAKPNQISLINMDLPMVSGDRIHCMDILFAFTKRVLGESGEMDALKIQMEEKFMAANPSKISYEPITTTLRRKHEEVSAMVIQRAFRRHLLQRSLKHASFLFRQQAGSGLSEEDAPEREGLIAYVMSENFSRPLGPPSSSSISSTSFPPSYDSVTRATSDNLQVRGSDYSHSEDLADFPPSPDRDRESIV
Chain of human Nav1.7 (Q15858 whole entry): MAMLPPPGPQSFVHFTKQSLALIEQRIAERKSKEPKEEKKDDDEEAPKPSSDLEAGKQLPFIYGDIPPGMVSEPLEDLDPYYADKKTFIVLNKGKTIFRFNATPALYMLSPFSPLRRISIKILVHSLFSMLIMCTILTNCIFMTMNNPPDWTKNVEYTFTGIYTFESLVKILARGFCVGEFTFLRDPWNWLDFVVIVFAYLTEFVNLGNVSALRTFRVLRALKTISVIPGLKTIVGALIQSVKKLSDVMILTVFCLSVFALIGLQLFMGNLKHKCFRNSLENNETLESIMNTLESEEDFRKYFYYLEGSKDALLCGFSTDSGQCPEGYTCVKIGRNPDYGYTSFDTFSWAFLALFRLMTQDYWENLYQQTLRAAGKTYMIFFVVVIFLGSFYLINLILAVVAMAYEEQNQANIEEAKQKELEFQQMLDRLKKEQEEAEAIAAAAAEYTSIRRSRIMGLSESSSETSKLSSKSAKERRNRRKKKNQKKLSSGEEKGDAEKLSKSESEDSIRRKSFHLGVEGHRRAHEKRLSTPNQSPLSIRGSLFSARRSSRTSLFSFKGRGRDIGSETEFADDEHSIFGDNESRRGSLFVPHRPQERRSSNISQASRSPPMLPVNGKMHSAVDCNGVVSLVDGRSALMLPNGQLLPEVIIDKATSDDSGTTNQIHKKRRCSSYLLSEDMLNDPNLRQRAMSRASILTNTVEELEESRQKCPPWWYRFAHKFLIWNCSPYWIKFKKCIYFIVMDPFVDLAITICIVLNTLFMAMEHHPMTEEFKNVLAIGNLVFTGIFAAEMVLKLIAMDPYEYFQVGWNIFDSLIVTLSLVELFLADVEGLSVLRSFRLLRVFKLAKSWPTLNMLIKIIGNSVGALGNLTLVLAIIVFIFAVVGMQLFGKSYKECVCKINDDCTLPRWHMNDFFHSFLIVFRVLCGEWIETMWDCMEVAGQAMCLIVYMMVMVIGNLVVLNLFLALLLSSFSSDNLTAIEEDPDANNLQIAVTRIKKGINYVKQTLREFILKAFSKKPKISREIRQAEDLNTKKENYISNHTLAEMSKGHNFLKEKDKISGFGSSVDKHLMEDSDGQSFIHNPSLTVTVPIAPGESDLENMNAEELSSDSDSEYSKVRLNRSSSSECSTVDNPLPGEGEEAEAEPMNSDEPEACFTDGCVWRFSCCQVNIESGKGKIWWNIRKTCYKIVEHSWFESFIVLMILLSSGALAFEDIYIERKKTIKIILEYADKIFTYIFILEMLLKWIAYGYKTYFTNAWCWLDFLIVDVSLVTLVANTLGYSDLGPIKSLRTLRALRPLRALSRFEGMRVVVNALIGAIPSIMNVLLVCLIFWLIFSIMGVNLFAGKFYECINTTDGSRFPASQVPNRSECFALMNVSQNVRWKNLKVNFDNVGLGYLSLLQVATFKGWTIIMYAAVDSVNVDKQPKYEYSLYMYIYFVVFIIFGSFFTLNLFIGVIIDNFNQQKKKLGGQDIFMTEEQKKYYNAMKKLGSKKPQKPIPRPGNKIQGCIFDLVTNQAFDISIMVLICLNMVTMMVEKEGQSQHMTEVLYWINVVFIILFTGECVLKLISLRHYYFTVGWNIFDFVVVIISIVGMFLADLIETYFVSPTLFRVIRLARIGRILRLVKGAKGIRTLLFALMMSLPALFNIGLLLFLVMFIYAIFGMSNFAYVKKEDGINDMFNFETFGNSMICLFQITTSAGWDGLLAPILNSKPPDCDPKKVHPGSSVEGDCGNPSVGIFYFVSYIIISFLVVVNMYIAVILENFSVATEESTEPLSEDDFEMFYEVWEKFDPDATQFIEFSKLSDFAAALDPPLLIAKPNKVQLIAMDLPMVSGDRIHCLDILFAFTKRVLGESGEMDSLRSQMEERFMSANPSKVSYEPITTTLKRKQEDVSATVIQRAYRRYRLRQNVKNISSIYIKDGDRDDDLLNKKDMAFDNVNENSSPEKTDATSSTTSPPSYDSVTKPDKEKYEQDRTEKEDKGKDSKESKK
Chain of human Nav1.7 (Q07699 19-218 partner): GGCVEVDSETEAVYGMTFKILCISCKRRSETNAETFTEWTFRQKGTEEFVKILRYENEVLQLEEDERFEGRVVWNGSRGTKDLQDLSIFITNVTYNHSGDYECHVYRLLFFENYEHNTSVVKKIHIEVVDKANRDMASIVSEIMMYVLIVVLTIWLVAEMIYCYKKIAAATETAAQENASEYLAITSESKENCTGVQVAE

A word on the IC50: it is the concentration that inhibits the measured activity by half. A higher IC50 goes with weaker potency in that assay. As to `Cn1ccc(-c2ccc3c(c2)C[C@@H](NC(=O)c2cc4n(n2)CCC(COCC2CC2)O4)CO3)n1` (stereo partly drawn) [Example 426], the IC50 was below 10000 nM at human Nav1.7 (setting [1]) and at least 3000 nM on human Nav1.5 (setting [2]).

`O=C(c1cn2c(n1)CCC(c1cccc(N3CCOCC3)n1)C2)N1CCC(c2ccccc2)C1` (stereo not drawn) [Example 307]: the IC50 on human Nav1.7 (setting [1]) is below 10000 nM; at human Nav1.5 (setting [2]), 1000 to 3000 nM.

Consider `O=C(N[C@H]1COc2ccc(Br)cc2C1)c1cc2n(n1)CCC(C(F)F)O2` (stereo partly drawn) [Example 159, N—((R)-6-bromochroman-3-yl)-5-(difluoromethyl)-6,7-dihydro-5H-pyrazolo[5,1-b][1,3]oxazine-2-carboxamide], for which the IC50 against human Nav1.7 (setting [1]) is below 1000 nM; against human Nav1.5 (setting [2]), at least 3000 nM.

In the case of `O=C(N[C@H]1COc2ccc(Cl)cc2C1)c1cc2n(n1)CCC(C(F)(F)F)O2` (single isomer, unassigned) [170 (isomer B)], the IC50 against human Nav1.7 (setting [1]) and on human Nav1.5 (setting [2]) was below 1000 nM in each case.

Turning to `COc1cccc(-c2c(C(=O)N[C@H]3COc4ccccc4C3)nc3n2CCCC3)n1` [Example 303], the half-maximal inhibitory concentration (IC50) is below 1000 nM at human Nav1.7 (setting [1]) and 1000 to 3000 nM at human Nav1.5 (setting [2]).

For the compound `CN1Cc2nc(C(=O)NCC(F)c3cccc(C(F)(F)F)c3)cn2CC1c1cccc(C(F)(F)F)n1` (stereo not drawn) [Example 333], the IC50 was below 10000 nM on human Nav1.7 (setting [1]) and at least 3000 nM on human Nav1.5 (setting [2]).

In the case of `COc1cccc2c1CC(NC(=O)c1cc3n(n1)CCC(c1ccccc1)O3)CO2` (stereo not drawn) [Example 351], the IC50 is below 1000 nM on human Nav1.7 (setting [1]) and at least 3000 nM against human Nav1.5 (setting [2]).

For `O=C(N[C@H]1COc2ccc(CC(F)F)cc2C1)c1cc2n(n1)CCC(C(F)(F)F)O2` (single isomer, unassigned) [173 (isomer A)], the IC50 was below 1000 nM against human Nav1.7 (setting [1]) and at least 3000 nM on human Nav1.5 (setting [2]).

On to `O=C(N[C@H]1COc2ccc(CC(F)F)cc2C1)c1cc2n(n1)CCC(CCOC(F)F)O2` (stereo partly drawn) [Example 147], for which the 50% inhibitory concentration (IC50) was below 1000 nM on human Nav1.7 (setting [1]) and at least 3000 nM against human Nav1.5 (setting [2]).

As for `O=C(NC1COc2cccc(Cl)c2C1)c1cc2n(n1)CCC(c1ccccc1)O2` (stereo not drawn) [Example 77], the half-inhibitory concentration (IC50) is below 1000 nM at human Nav1.7 (setting [3]) and at least 3000 nM against human Nav1.5 (setting [4]).

`O=C(N[C@H]1COc2ccc(Cl)cc2C1)c1cc2n(n1)CC(CNCC(F)(F)F)O2` (stereo partly drawn) [Example 448]: the IC50 was below 1000 nM at human Nav1.7 (setting [1]) and 1000 to 3000 nM against human Nav1.5 (setting [2]).

On to `CC(C)(C)OCCN1CCn2nc(C(=O)N[C@H]3COc4ccc(C(F)F)cc4C3)cc2C1` [Example 272], for which the IC50 is below 10000 nM against human Nav1.7 (setting [1]) and at least 3000 nM against human Nav1.5 (setting [2]).

Regarding `Cn1ccc(-c2ccc3c(c2)C[C@@H](NC(=O)c2cc4n(n2)CC(CCOC(F)(F)F)O4)CO3)n1` (stereo partly drawn) [Example 212], the IC50 against human Nav1.7 (setting [1]) was below 1000 nM; against human Nav1.5 (setting [2]), at least 3000 nM.

For `CCOCC1CCn2nc(C(=O)N[C@H]3COc4ccc(-c5ccccn5)cc4C3)cc2O1` (single isomer, unassigned) [124 (isomer A)], the IC50 at human Nav1.7 (setting [3]) was below 1000 nM; against human Nav1.5 (setting [4]) it was at least 3000 nM.

Regarding `CC1CCn2nc(C(=O)N[C@H]3COc4ccc(Cl)cc4C3)cc2O1` (stereo partly drawn) [Example 85], the concentration for half-maximal inhibition (IC50) was below 1000 nM at human Nav1.7 (setting [3]) and at least 3000 nM against human Nav1.5 (setting [4]).

As to `O=C(c1cn2c(n1)CCC(C1CCC(F)(F)CC1)C2)N1CCC1Cc1ccccc1` (stereo not drawn) [Example 318], the IC50 at human Nav1.7 (setting [1]) was below 10000 nM; against human Nav1.5 (setting [2]) it was at least 3000 nM.

In the case of `O=C(N[C@H]1COc2ccc(-c3cccnc3)cc2C1)c1cc2n(n1)CCC(C(F)(F)F)O2` (stereo partly drawn) [Example 375], the IC50 was below 1000 nM against human Nav1.7 (setting [1]) and at least 3000 nM against human Nav1.5 (setting [2]).

Take `O=C(N[C@H]1COc2ccc(C(F)(F)F)cc2C1)c1nc2n(c1-c1ccn[nH]1)CCCC2` [Example 19]: the IC50 at human Nav1.7 (setting [3]) and at human Nav1.5 (setting [4]) was below 1000 nM each time.

On to `O=C(N[C@H]1COc2ccc(Cl)cc2C1)c1cc2n(n1)CCC(C(F)(F)F)O2` (stereo partly drawn) [Example 169], for which the results for the IC50 at human Nav1.7 (setting [1]) and against human Nav1.5 (setting [2]) were below 1000 nM and 1000 to 3000 nM, respectively.

Take `CC(C)(F)C1CCn2nc(C(=O)N[C@H]3COc4ccc(C#N)cc4C3)cc2O1` (single isomer, unassigned) [547 (isomer A)]: the IC50 at human Nav1.7 (setting [1]) is below 10000 nM; on human Nav1.5 (setting [2]) it was at least 3000 nM.

For the compound `CC(C)COC1CCc2nc(C(=O)N[C@H]3COc4ccccc4C3)cn2C1` (stereo partly drawn) [Example 41], the half-maximal inhibitory concentration (IC50) against human Nav1.7 (setting [3]) was below 10000 nM; at human Nav1.5 (setting [4]) it was at least 3000 nM.
